# Source: ChEMBL document CHEMBL1201862, “PubChem BioAssay data set” (2004)
#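 48-hour exposure; five concentrations; linearly interpolated endpoints. GI50 is the concentration that inhibits growth by half.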 Activity calls are given as the source filed them. No stated cut-off is given here; in the data, active = GI50 up to about 1.1 µM and inactive = higher.
# How the values were obtained:
# Test in all cases: NCI anticancer screen, dose series, 48 h
# [1] = tested on: SR
# [2] = tested on: 786-0
# [3] = tested on: RPMI-8226
# [4] = tested on: MOLT-4
# [5] = tested on: UO-31
# [6] = tested on: DLD-1
# [7] = tested on: COLO 205
# [8] = tested on: NCI-H460
# [9] = tested on: OVCAR-5
# [10] = tested on: ACHN
# [11] = tested on: UACC-257
# [12] = tested on: HOP-62
# [13] = tested on: DMS-273
# [14] = tested on: LOX IMVI
# [15] = tested on: OVCAR-3
# [16] = tested on: KM12
# [17] = tested on: OVCAR-4
# [18] = tested on: Malme-3M
# [19] = tested on: SK-MEL-28
# [20] = tested on: UACC-62
# [21] = tested on: HT-29
# [22] = tested on: A498
# [23] = tested on: SW-620
# [24] = tested on: EKVX
# [25] = tested on: SNB-19
# [26] = tested on: SNB-75
# [27] = tested on: TK-10
# [28] = tested on: A549
# [29] = tested on: HCT-15
# [30] = tested on: SN12C
# [31] = tested on: HCC 2998
# [32] = tested on: SF-268
# [33] = tested on: LXFL 529
# [34] = tested on: IGROV-1
# [35] = tested on: HCT-116
# [36] = tested on: SF-539
# [37] = tested on: CCRF-CEM
# [38] = tested on: K562
# [39] = tested on: U-251
# [40] = tested on: M14
# [41] = tested on: DMS-114
# [42] = tested on: CAKI-1
# [43] = tested on: HL-60
# [44] = tested on: OVCAR-8
# [45] = tested on: NCI-H226
# [46] = tested on: SK-OV-3
# [47] = tested on: SK-MEL-2
# [48] = tested on: NCI-H23
# [49] = tested on: SF-295
# [50] = tested on: SK-MEL-5
# [51] = tested on: NCI-H522
# [52] = tested on: KM-20L2
# [53] = tested on: M19-MEL
# [54] = tested on: RXF 393
# [55] = tested on: SNB-78
structure (smiles),measurement,setting,value
CCOC(=O)C(NC(=O)c1ccc(/N=N/N(C)C)cc1)C(C)C (stereo not drawn),GI50,[1],> 100 µM (inactive)
same,GI50,[2],> 100 µM (inactive)
same,GI50,[3],> 100 µM (inactive)
same,GI50,[4],> 100 µM (inactive)
same,GI50,[5],> 100 µM (inactive)
same,GI50,[6],> 100 µM (inactive)
same,GI50,[7],> 100 µM (inactive)
same,GI50,[8],> 100 µM (inactive)
same,GI50,[9],> 100 µM (inactive)
same,GI50,[10],> 100 µM (inactive)
same,GI50,[11],> 100 µM (inactive)
same,GI50,[12],> 100 µM (inactive)
same,GI50,[13],> 100 µM (inactive)
same,GI50,[14],> 100 µM (inactive)
same,GI50,[15],> 100 µM (inactive)
same,GI50,[16],> 100 µM (inactive)
same,GI50,[17],> 100 µM (inactive)
same,GI50,[18],> 100 µM (inactive)
same,GI50,[19],> 100 µM (inactive)
same,GI50,[20],> 100 µM (inactive)
same,GI50,[21],> 100 µM (inactive)
same,GI50,[22],> 100 µM (inactive)
same,GI50,[23],> 100 µM (inactive)
same,GI50,[24],> 100 µM (inactive)
same,GI50,[25],> 100 µM (inactive)
same,GI50,[26],> 100 µM (inactive)
same,GI50,[27],54.2 µM (inactive)
same,GI50,[28],> 100 µM (inactive)
same,GI50,[29],> 100 µM
same,GI50,[30],> 100 µM (inactive)
same,GI50,[31],> 100 µM (inactive)
same,GI50,[32],> 100 µM (inactive)
same,GI50,[33],> 100 µM (inactive)
same,GI50,[34],> 100 µM (inactive)
same,GI50,[35],> 100 µM (inactive)
same,GI50,[36],> 100 µM (inactive)
same,GI50,[37],> 100 µM (inactive)
same,GI50,[38],> 100 µM (inactive)
same,GI50,[39],31 µM (inactive)
same,GI50,[40],> 100 µM (inactive)
same,GI50,[41],> 100 µM (inactive)
same,GI50,[42],> 100 µM (inactive)
same,GI50,[43],> 100 µM (inactive)
same,GI50,[44],> 100 µM (inactive)
same,GI50,[45],> 100 µM (inactive)
same,GI50,[46],> 100 µM (inactive)
same,GI50,[47],> 100 µM (inactive)
same,GI50,[48],> 100 µM (inactive)
same,GI50,[49],> 100 µM (inactive)
same,GI50,[50],> 100 µM (inactive)
same,GI50,[51],> 100 µM (inactive)
CNS(=O)(=O)NNS(=O)(=O)c1cccc([N+](=O)[O-])c1,GI50,[1],> 100 µM (inactive)
same,GI50,[2],> 100 µM (inactive)
same,GI50,[3],> 100 µM (inactive)
same,GI50,[4],> 100 µM (inactive)
same,GI50,[5],> 100 µM (inactive)
same,GI50,[52],> 100 µM (inactive)
same,GI50,[6],> 100 µM (inactive)
same,GI50,[7],> 100 µM (inactive)
same,GI50,[8],> 100 µM (inactive)
same,GI50,[10],> 100 µM (inactive)
same,GI50,[11],> 100 µM (inactive)
same,GI50,[12],> 100 µM (inactive)
same,GI50,[13],> 100 µM (inactive)
same,GI50,[53],> 100 µM (inactive)
same,GI50,[14],> 100 µM (inactive)
same,GI50,[15],> 100 µM (inactive)
same,GI50,[16],> 100 µM (inactive)
same,GI50,[17],> 100 µM (inactive)
same,GI50,[18],> 100 µM (inactive)
same,GI50,[20],> 100 µM (inactive)
same,GI50,[21],> 100 µM (inactive)
same,GI50,[23],> 100 µM (inactive)
same,GI50,[24],> 100 µM (inactive)
same,GI50,[25],> 100 µM (inactive)
same,GI50,[26],> 100 µM (inactive)
same,GI50,[54],> 100 µM (inactive)
same,GI50,[27],> 100 µM (inactive)
same,GI50,[28],> 100 µM (inactive)
same,GI50,[29],> 100 µM
same,GI50,[30],> 100 µM (inactive)
same,GI50,[31],> 100 µM (inactive)
same,GI50,[33],> 100 µM (inactive)
same,GI50,[34],> 100 µM (inactive)
same,GI50,[35],> 100 µM (inactive)
same,GI50,[36],> 100 µM (inactive)
same,GI50,[37],> 100 µM (inactive)
same,GI50,[38],> 100 µM (inactive)
same,GI50,[39],> 100 µM (inactive)
same,GI50,[40],> 100 µM (inactive)
same,GI50,[41],> 100 µM (inactive)
same,GI50,[42],> 100 µM (inactive)
same,GI50,[44],> 100 µM (inactive)
same,GI50,[47],> 100 µM (inactive)
same,GI50,[48],> 100 µM (inactive)
same,GI50,[49],> 100 µM (inactive)
same,GI50,[50],> 100 µM (inactive)
same,GI50,[51],> 100 µM (inactive)
CCN(CC)CCNc1ccc(CO)c2sc3ccccc3c(=O)c12 [HYCANTHONE],GI50,[1],3.18 µM (inactive)
same,GI50,[3],10.8 µM (inactive)
same,GI50,[4],2.79 µM (inactive)
same,GI50,[5],6.58 µM (inactive)
same,GI50,[52],5.37 µM (inactive)
same,GI50,[8],4.04 µM (inactive)
same,GI50,[9],12.5 µM (inactive)
same,GI50,[11],15.8 µM (inactive)
same,GI50,[53],13 µM (inactive)
same,GI50,[55],12.7 µM (inactive)
same,GI50,[17],5.37 µM (inactive)
same,GI50,[19],16.8 µM (inactive)
same,GI50,[20],19.5 µM (inactive)
same,GI50,[22],8.22 µM (inactive)
same,GI50,[23],5.48 µM (inactive)
same,GI50,[24],13.7 µM (inactive)
same,GI50,[25],9.51 µM (inactive)
same,GI50,[28],6.85 µM (inactive)
same,GI50,[32],8.89 µM (inactive)
same,GI50,[33],12.7 µM (inactive)
same,GI50,[35],4.8 µM (inactive)
same,GI50,[36],11.2 µM (inactive)
same,GI50,[39],10.5 µM (inactive)
same,GI50,[41],11.5 µM (inactive)
same,GI50,[42],5.92 µM (inactive)
same,GI50,[44],6.37 µM (inactive)
same,GI50,[45],13.9 µM (inactive)
same,GI50,[48],> 10 µM (inactive)
same,GI50,[49],7.14 µM (inactive)
same,GI50,[51],4.04 µM (inactive)
